Where two headings read alike, the source gives them in different places. Bridge positions count the residues as written; N and C are the ends. Peptide text beside a SMILES is read from it.
Tests used:
[1] = molecular target: T1, GC-C receptors on the cell surface of human colonic cells (T84 cells) (Homo sapiens, UniProt P25092); assay: competitive radioligand-binding assay on T84 cells
T1 construct: 2.5×10^5 T84 cells (0.25 mg protein); host or cells: T84 human colonic cells
Experimental: The radiolabeled tracer used in these experiments was ^125I-SEQ ID NO:7. To determine binding constants, competitive inhibition of binding was used. T84 cells were cultured in T-150 plastic flasks in DMEM and Ham's F-12 medium containing 5% fetal bovine serum. Monolayers at 60-70% confluency (approximately 10^7 cells) were collected by gentle scraping followed by centrifugation, and washed twice in 50 mL of phosphate-buffered saline (PBS). The cells were resuspended in 1 mL DMEM containing 20 mM […] (Hepes), pH 7.0 and 0.5% bovine serum albumin (BSA). T84 cells were incubated with a constant amount of ^125I-SEQ ID NO:7 containing various concentrations of cold competitor. Free ^125I-SEQ ID NO:7 was separated from bound tracer by rapid suction filtration. The binding reactions were carried out in 1.5 mL microfuge tubes in 0.24 mL of DMEM/20 mM Hepes pH 7.0/0.5% BSA containing: 2.5×10^5 T84 cells (0.25 mg protein), 200,000 cpm ^125I-SEQ ID NO:7 (41 fmol, 170 pM), and 0.01 to 1,000 nM competitor. Binding assays at pH 5.0 were done in DMEM/20 mM 2-(N-morpholino) ethanesulfonic acid (Mes), pH 5.0. Binding assays in pH 8.0 were done in DMEM/20 mM Hepes/50 mM sodium bicarbonate pH 8.0. One sample contained no competitor (B0) and another contained no cells. After incubation at 37° C. for 1 h, the reaction mixtures were applied to Whatman GF/B glass-fiber filters by suction filtration. The filters were then rinsed with 10 mL ice-cold PBS buffer, inserted into plastic tubes, and added to 2 mL scintillation fluid. Radioactivity was measured in a LS 6500 liquid scintillation counter (Beckman-Coulter). The percent bound in each sample is calculated by the equation:
% B/B0=(sample cpm−no cells cpm)×100/(B0cpm−no cells cpm)
Competitive radioligand-binding curves were generated using the Graphpad PRISM™ computer program. […]

[2] = oral bioavailability in rats, LCMS detection; format: in vivo; conditions: for AUC / bioavailability: rat, plasma, 10 mg/kg; for bioavailability: oral, read-out: 6 h bioavailability determined by circulating plasma levels
Experimental: Similarly, oral bioavailabity was determined in rats using LCMS methodology. Rat plasma samples containing SEQ ID NO:3 and/or SEQ ID NO:6 were extracted using a Waters Oasis MAX 96 well solid phase extraction (SPE) plate. A 200 μL volume of rat plasma was mixed with 200 μL of ^13C9, ^15N—SEQ ID NO:3 in the well of a prepared SPE plate. The samples were drawn through the stationary phase with 15 mm Hg vacuum. All samples were rinsed with 200 μL of 2% ammonium hydroxide in water followed by 200 μL of 20% methanol in water. The samples were eluted with consecutive 100 μL volumes of 5/20/75 formic acid/water/methanol and 100 μL 5/15/80 formic acid/water/methanol. The samples were dried under nitrogen and resuspended in 100 μL of 20% methanol in water. Samples were analyzed by a Waters Quattro Micro mass spectrometer coupled to a Waters 1525 binary pump with a Waters 2777 autosampler. A 40 μL volume of each sample was injected onto a Thermo Hypersil GOLD C18 column (2.1×50 mm, 5 um). SEQ ID NO:3 and SEQ ID NO:6 were eluted by a gradient over 3 minutes with acetonitrile and water containing 0.05% trifluoroacetic acid. The Quattro Micro mass spectrometer was run in multiple reaction monitoring (MRM) mode using the mass transitions of 764>182 and 682>136 for SEQ ID NO:3 and SEQ ID NO:6 respectively. Using this methodology, SEQ ID NO:3 was dosed orally and by IV to rats at 10 mg/kg. […] To determine the oral biovailability of SEQ ID NO:6, this peptide was dosed to rats at 10 mg/kg. In this experiment, the limit of detection (LOD) for SEQ ID NO:6 was 0.78 nM. SEQ ID NO:6 was detected at all time points for the intravenous dose and was not detected beyond 240 min for the oral dose. For non-detected values, the LOD was used as an upper estimate of the concentration of SEQ ID NO:6. The calculated value for AUCp.o., (0-6h) was […] and AUCi.v., (0-6h) was 1,590,000 nM-min. The 6 h bioavailability of SEQ ID NO:6 determined by circulating plasma levels was 0.08%

T1 sequence (P25092 24-1073): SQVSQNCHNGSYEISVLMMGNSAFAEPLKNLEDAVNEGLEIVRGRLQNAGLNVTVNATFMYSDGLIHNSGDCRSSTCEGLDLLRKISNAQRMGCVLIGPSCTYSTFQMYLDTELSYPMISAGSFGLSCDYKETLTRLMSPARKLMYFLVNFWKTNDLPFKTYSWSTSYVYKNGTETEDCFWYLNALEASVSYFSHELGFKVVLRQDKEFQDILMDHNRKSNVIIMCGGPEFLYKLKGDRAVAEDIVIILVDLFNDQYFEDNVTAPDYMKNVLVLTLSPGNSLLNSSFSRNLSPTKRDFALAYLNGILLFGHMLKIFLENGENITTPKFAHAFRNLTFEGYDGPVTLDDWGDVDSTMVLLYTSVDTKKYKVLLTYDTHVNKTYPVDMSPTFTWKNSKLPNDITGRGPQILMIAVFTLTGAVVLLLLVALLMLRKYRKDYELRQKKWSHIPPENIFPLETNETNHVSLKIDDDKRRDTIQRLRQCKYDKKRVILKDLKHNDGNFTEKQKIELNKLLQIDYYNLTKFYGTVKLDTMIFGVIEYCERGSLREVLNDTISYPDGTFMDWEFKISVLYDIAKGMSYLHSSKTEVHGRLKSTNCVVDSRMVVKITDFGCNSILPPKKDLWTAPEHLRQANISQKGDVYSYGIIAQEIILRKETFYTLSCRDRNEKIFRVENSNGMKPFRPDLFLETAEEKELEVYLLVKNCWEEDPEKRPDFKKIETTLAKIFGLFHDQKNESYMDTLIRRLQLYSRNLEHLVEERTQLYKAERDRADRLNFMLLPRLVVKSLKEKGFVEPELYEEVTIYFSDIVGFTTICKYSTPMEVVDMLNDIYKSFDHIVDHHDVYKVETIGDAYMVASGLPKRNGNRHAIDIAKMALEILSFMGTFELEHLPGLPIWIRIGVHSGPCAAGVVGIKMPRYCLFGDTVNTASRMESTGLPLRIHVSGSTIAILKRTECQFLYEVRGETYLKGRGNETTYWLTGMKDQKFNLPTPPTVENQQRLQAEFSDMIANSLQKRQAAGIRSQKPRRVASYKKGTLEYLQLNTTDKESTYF

With `C[C@@H]1NC(=O)[C@@H]2CCCN2C(=O)[C@H](CC(N)=O)NC(=O)[C@@H]2CSSC[C@H](N)C(=O)N[C@H]3CSSC[C@H](NC1=O)C(=O)N[C@@H]([C@@H](C)O)C(=O)NCC(=O)N[C@H](C(=O)N[C@@H](Cc1ccc(O)cc1)C(=O)O)CSSC[C@H](NC(=O)[C@H](Cc1ccc(O)cc1)NC(=O)[C@H](CCC(=O)O)NC3=O)C(=O)N2` [SEQ ID NO:3] (H-CCEYCCNPACTGCY-OH; disulfide 1-6, 2-10, 5-13; N-terminus and C-terminus assumed) the “effect of pH on binding to the high affinity site, Ki1” value ([1]; pH 5, 7 and 8) was “not affected by pH”, the AUC ([2]; iv, rats, 10 mg/kg IV, LCMS, read-out: AUC of SEQ ID NO:3, intravenously administered (converted)) was 12.3 µM·h and the bioavailability ([2]; rats, LCMS) was 0.11%. The AUC ([2]; po, rats, 10 mg/kg oral, LCMS, read-out: AUC of SEQ ID NO:3, orally dosed (converted)) was 0.0129 µM·h and the “6 h bioavailability when AUC values for SEQ ID NO:6 are included” value ([2]; rats, SEQ ID NO:3 10 mg/kg, LCMS) was 0.13%.
For `C[C@@H]1NC(=O)[C@@H]2CCCN2C(=O)[C@H](CC(N)=O)NC(=O)[C@@H]2CSSC[C@H](N)C(=O)N[C@H]3CSSC[C@H](NC1=O)C(=O)N[C@@H]([C@@H](C)O)C(=O)NCC(=O)N[C@H](C(=O)O)CSSC[C@H](NC(=O)[C@H](Cc1ccc(O)cc1)NC(=O)[C@H](CCC(=O)O)NC3=O)C(=O)N2` [SEQ ID NO:6] (H-CCEYCCNPACTGC-OH; disulfide 1-6, 2-10, 5-13), the Ki [1] was 0.00157 µM, the Ki ([1]; read-out: Ki2 (low affinity site), pH 7.0, T84 cells, tracer 125I-SEQ ID NO:7) was 0.446 µM and the AUC ([2]; iv, rats, SEQ ID NO:3 10 mg/kg IV, metabolite, read-out: AUC for SEQ ID NO:6 in SEQ ID NO:3 intravenously dosed rats (converted)) was 0.0597 µM·h. It also gave an AUC ([2]; iv, rats, SEQ ID NO:6 10 mg/kg intravenous, read-out: AUCi.v., (0-6h) (converted)) of 26.5 µM·h, a bioavailability ([2]; rats, LCMS) of 0.08% and an AUC ([2]; po, rats, SEQ ID NO:3 10 mg/kg oral, metabolite, read-out: AUC for SEQ ID NO:6 in rats dosed orally with SEQ ID NO:3 (converted)) of 0.0036 µM·h. For the same compound, the AUC ([2]; po, rats, SEQ ID NO:6 10 mg/kg oral, LOD used for non-detected values, read-out: AUCp.o., (0-6h)) was under 0.0218 µM·h, the “detection as metabolite in plasma” value ([2]; rats dosed with SEQ ID NO:3) was “detected in the plasma” and the “last time detected in plasma after the oral dose” value ([2]; rats, SEQ ID NO:6 10 mg/kg oral, LOD 0.78 nM) was at most 240 min.

From patent US20090253634A1, “Methods and Compositions for the Treatment of Gastrointestinal Disorders” (MICROBIA, INC., priority 2005, published 2009)
